Source: patent US20210228523A1, “MODULATORS OF SESTRIN-GATOR2 INTERACTION AND USES THEREOF” (Navitor Pharmaceuticals, Inc., priority 2017, published 2021)

Molecular target: T1, GATOR2/Sestrin2 complexes (Homo sapiens, UniProt P58004)
T1 construct: endogenous in cells; host or cells: HEK293T cells stably expressing FLAG-WDR24 (lentiviral, pLJM60)
T1 sequence (P58004 1-480): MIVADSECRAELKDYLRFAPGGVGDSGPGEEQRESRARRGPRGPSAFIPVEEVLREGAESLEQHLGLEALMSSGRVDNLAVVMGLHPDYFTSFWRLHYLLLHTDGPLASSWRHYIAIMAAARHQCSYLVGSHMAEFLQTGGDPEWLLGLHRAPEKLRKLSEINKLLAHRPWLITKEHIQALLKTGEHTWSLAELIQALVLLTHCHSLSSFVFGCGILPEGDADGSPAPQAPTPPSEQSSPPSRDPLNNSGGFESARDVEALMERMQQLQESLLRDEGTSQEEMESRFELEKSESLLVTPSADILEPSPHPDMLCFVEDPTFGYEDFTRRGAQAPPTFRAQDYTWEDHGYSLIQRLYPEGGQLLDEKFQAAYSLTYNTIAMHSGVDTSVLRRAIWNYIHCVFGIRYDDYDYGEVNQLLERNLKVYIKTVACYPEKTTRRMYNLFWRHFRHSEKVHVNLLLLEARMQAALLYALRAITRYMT
Test: In vitro PPI assay (Method 1; Western blot assay): Sestrin2 bound to GATOR2 after compound addition to immunoprecipitated FLAG-WDR24 complex
Format: binding
Conditions: 25 μM, % activity relative to leucine (25 μM = 100%)
Source text: This screening assay measured test compound activity in vitro on GATOR2/Sestrin2 complexes purified via immunoprecipitation of stably expressed FLAG-WDR24 from HEK293T cells. HEK293T cells (293 Ts) were engineered to stably express N-terminally tagged FLAG-WDR24 via transduction by lentivirus. Lentiviruses were produced by co-transfection of the lentiviral transfer vector pLJM60 with the […] into HEK-293T cells using the XTremeGene 9 transfection reagent (Roche Diagnostics). The media was changed 24 hours post-transfection to Dulbecco's Modified Eagle's media (DMEM) supplemented with 30% Inactivated Fetal Serum. The virus-containing supernatants were collected 48 and 72 hours after transfection and passed through a 0.45 μm filter to eliminate cells. Target cells in 6-well tissue culture plates were infected in media containing 8 μg/mL polybrene and spin infections were performed by centrifugation at 2,200 rpm for 1 hour. Twenty-four hours after infection, the virus was removed and the cells selected with the appropriate antibiotic. Cells were then grown in DMEM supplemented with 10% fetal bovine serum and antibiotics.
Seventy-two hours later, cells were placed in standard RPMI media formulated with no amino acids and supplemented with 5 mM Glucose (−AA RPMI, US Biological Life Sciences) for 1 hour then subsequently lysed in lysis buffer (40 mM HEPES, 1% Triton, 10 mM sodium β-glycerophosphate, 10 mM sodium pyrophosphate, 2.5 mM MgCl2 and protease inhibitors). To isolate the FLAG-WDR24/endogenous-Sestrin2 complex, crude lysate (equivalent to 2-4 mg of total protein) in a volume of 1 ml was subjected to immunoprecipitation with 30 μl of anti-flag resin (SIGMA) for 2 hours at 4° C., washed twice in cold lysis buffer plus 0.5M NaCl and resuspended in 1 ml of cold cytosolic buffer (40 mM HEPES pH 7.4, 140 mM KCl, 10 mM NaCl, 2.5 mM MgCl2, 0.1% TritonX-100). […] After the incubation period, samples were centrifuged to pellet the FLAG-WDR24/endogenous-Sestrin2 complex bound to the anti-flag resin, the supernatant was completely removed and resin was resuspended in SDS-PAGE sample buffer and boiled for 5 minutes. Samples were then processed by SDS-PAGE and western blots were performed with anti-FLAG (SIGMA) and anti-Sestrin2 (Cell Signaling Technology) antibodies as described in L. Chantranupong, et al., Cell Reports 9:1-8 (2014).
The resulting western blots were scanned and band intensities corresponding to Sestrin2 and FLAG-WDR24 were quantified using the LI-COR® imaging platform. To determine the amount of Sestrin2 bound to GATOR2 for each condition, the band intensity for Sestrin2 was normalized to the band intensity of FLAG-WDR24. […]
72 hours later, cells were placed in standard RPMI media formulated with no amino acids and supplemented with 5 mM Glucose (−AA RPMI, USBiological Life Sciences) for 1 hour then subsequently lysed in lysis buffer (40 mM HEPES, 1% Triton, 10 mM Sodium Beta-Glycerophosphate, 10 mM Sodium Pyrophosphate, 2.5 mM MgCl2 and protease inhibitors). The Flag-WDR24/endogenous-Sestrin2 complex was isolated as follows: crude lysate (equivalent to 2-4 mg of total protein) in a volume of 1 ml was subjected to immunoprecipitation (IP) with 30 μl of anti-flag resin (SIGMA) for 2 hours at 4° C., washed twice in cold lysis buffer plus 0.5M NaCl and resuspended in 1 ml of cold cytosolic buffer (40 mM HEPES pH 7.4, 140 mM KCl, 10 mM NaCl, 2.5 mM MgCl2, 0.1% TritonX-100). Compounds were then added to each sample at a given concentration of 25 μM and incubated with rotation at 4° C. for 30 minutes. After the incubation period, samples were centrifuged to pellet the Flag-WDR24/endogenous-Sestrin2 complex bound to the anti-flag resin, the supernatant was completely removed and resin was resuspended in sodium dodecyl sulfate-polyacrylamide gel electrophoresis (SDS-PAGE) sample buffer and boiled for 5 minutes. […]

Structure (SMILES): CC(C)C[C@H](N)C(=O)NS(C)(=O)=O.Cl [Compound I-147, (S)-2-amino-4-methyl-N-(methylsulfonyl)pentanamide Hydrochloride]
- Activity of Leucine: % Activity: A (a % activity relative to leucine of ≥40%)

Structure (SMILES): N[C@@H](CCCC(F)(F)F)C(=O)O [Compound I-8, (S)-2-amino-6,6,6-trifluorohexanoic Acid]
- Activity of Leucine: % Activity: B (a % activity relative to leucine of ≤−40%)

Structure (SMILES): CC(C)C(F)(F)[C@H](N)C(=O)O [Compound I-46, (R)-2-amino-3,3-difluoro-4-methylpentanoic Acid]
- Activity of Leucine: % Activity: C (a % activity relative to leucine of between -40 and 40%)

Structure (SMILES): CSCC[C@H](N)C(=O)O [Compound I-30]
- Activity of Leucine: % Activity: A (a % activity relative to leucine of ≥40%)

Structure (SMILES): CC(C)C[C@H](N)C(=O)N(C)C1CCCC1 [Compound I-162]
- Activity of Leucine: % Activity: C (a % activity relative to leucine of between -40 and 40%)

Structure (SMILES): CC(C)C[C@H](N)C(=O)Nc1ccccc1 [Compound I-20, (S)-2-amino-4-methyl-N-phenylpentanamide]
- Activity of Leucine: % Activity: C (a % activity relative to leucine of between -40 and 40%)

Structure (SMILES): CC(C)CC(N)S(=O)(=O)O (centres unmarked) [Compound I-33]
- Activity of Leucine: % Activity: C (a % activity relative to leucine of between -40 and 40%)

Structure (SMILES): CC(C)C[C@@H](C(=O)O)N(C)C [Compound I-1, (S)-2-(dimethylamino)-4-methylpentanoic Acid]
- Activity of Leucine: % Activity: B (a % activity relative to leucine of ≤−40%)

Structure (SMILES): CNC(=O)[C@@H](N)CC(C)C [Compound I-21, (S)-2-amino-N,4-dimethylpentanamide]
- Activity of Leucine: % Activity: C (a % activity relative to leucine of between -40 and 40%)

Structure (SMILES): CC(C)C[C@H](N)C(=O)N1CCCCC1 [Compound I-151]
- Activity of Leucine: % Activity: C (a % activity relative to leucine of between -40 and 40%)

Structure (SMILES): CC(C)C[C@H](N)C(=O)O [Compound I-44]
- Activity of Leucine: % Activity: A (a % activity relative to leucine of ≥40%)

Structure (SMILES): CC(C)C[C@H](NS(=O)(=O)C1CCCCC1)C(=O)O [Compound I-17, (S)-2-(cyclohexanesulfonamido)-4-methylpentanoic Acid]
- Activity of Leucine: % Activity: C (a % activity relative to leucine of between -40 and 40%)

Structure (SMILES): CC(C)C[C@H](NS(=O)(=O)Cc1ccccc1)C(=O)O [Compound I-18, (S)-4-methyl-2-(phenylmethylsulfonamido)pentanoic Acid]
- Activity of Leucine: % Activity: C (a % activity relative to leucine of between -40 and 40%)

Structure (SMILES): CC(C[C@@H](N)C(=O)O)C(F)(F)F (stereo in doubt) [Compound I-146, (2R,4S)-2-amino-5,5,5-trifluoro-4-methylpentanoic Acid]
- Activity of Leucine: % Activity: A (a % activity relative to leucine of ≥40%)

Structure (SMILES): CN[C@@H](CC(C)(C)C)C(N)=O [Compound I-49]
- Activity of Leucine: % Activity: C (a % activity relative to leucine of between -40 and 40%)

Structure (SMILES): COCCC(N)C(=O)O (centres unmarked) [Compound I-39]
- Activity of Leucine: % Activity: C (a % activity relative to leucine of between -40 and 40%)

Structure (SMILES): CC(C)C[C@H](N)C(=O)N1CCCC1 [Compound I-154]
- Activity of Leucine: % Activity: C (a % activity relative to leucine of between -40 and 40%)

Structure (SMILES): N[C@H](CC1CCCC1)C(=O)O [Compound I-40]
- Activity of Leucine: % Activity: A (a % activity relative to leucine of ≥40%)

Structure (SMILES): N[C@H](CC(C(F)(F)F)C(F)(F)F)C(=O)O [Compound I-163]
- Activity of Leucine: % Activity: A (a % activity relative to leucine of ≥40%)

Structure (SMILES): CC(C)C[C@H](N)C(=O)N1CCCC[C@@H]1C [Compound I-153]
- Activity of Leucine: % Activity: C (a % activity relative to leucine of between -40 and 40%)

Structure (SMILES): CCCC[C@H](N)C(=O)O [Compound I-31]
- Activity of Leucine: % Activity: A (a % activity relative to leucine of ≥40%)

Structure (SMILES): CC(C)[C@H](O)[C@H](N)C(=O)O [Compound I-27]
- Activity of Leucine: % Activity: A (a % activity relative to leucine of ≥40%)

Structure (SMILES): CC(C)C[C@H](N)S(=O)(=O)O [Compound I-157]
- Activity of Leucine: % Activity: B to C
